According to patent publication US11633394B2, “Substituted alkynylene compounds as anticancer agents” (Aurigene Oncology Limited, priority 2018, dated 2023):

Legend:
[1] = system: NCI-H1792 cells; test: Anti proliferative activity in NCI-H1792 cells by XTT assay; type: cell-based; conditions: H1792 cell line; for IC50: 72 hours incubation; for viability at 30 µM / % Viability (at 30 μM): 72 hours
Procedure: Example 78: Determination of Anti Proliferative Activity in NCI-H1792 Cells by XTT Assay
NCI-H1792 cells (ATCC CRL-5895) were plated at 2000 cells/well in 96 well flat clear bottom plates (Corning, Cat. No 3596) using complete RPMI media. After 24 hours, compounds of present invention were added to cells from 20 mM stocks made in DMSO (Sigma Cat no. D2650). Each concentration of compound was tested in triplicate with DMSO concentration not exceeding a final percentage of 0.3 in the cells. After 72 hours of incubation in CO2 incubator, XTT (Invitrogen, Cat. no X6493) was added to the wells. XTT was dissolved in serum free media at 1 mg/ml and absorbance readings were taken in spectrophotometer at 465 nm. The data was analysed using graph pad prism software. Positive control (100% survival)=Cells in complete media with 0.3% DMSO; Negative control/blank (0% survival)=Media alone containing 0.3% DMSO.
(§1) The compounds of the present invention were screened in the above mentioned assay and the results are tabulated below.

[2] = system: NCI-H2122 cells; test: Anti proliferative activity in NCI-H2122 cells by XTT assay; type: cell-based; conditions: H2122 cell line; for IC50: 8 days (192 hour) incubation; for viability at 30 µM: 8 days
Procedure: Example 79: Determination of Anti Proliferative Activity in NCI-H2122 Cells by XTT Assay
NCI-H2122 cells (ATCC CRL-5985) were plated at 1000 cells/well in 96 well flat clear bottom plates (Corning, Cat. No 3596) using complete RPMI-1640 media. After 24 hours, compounds of present invention were added to cells from 10 mM stocks made in DMSO (Sigma Cat no. D2650). Each concentration of compound was tested in triplicate with DMSO concentration not exceeding a final percentage of 0.3 in the cells. Complete RPMI-1640 media changed at Day 3 (72 hour) and Day 6 (144 hour) along with compounds of current invention. After 8 days (192 hour) of incubation assay terminated using 50 μl of XTT reagent (Invitrogen, Cat. no X6493). XTT reagent was made by dissolving 1 mg/mi XTT in serum free media with addition of 25 μM Phenazine methosulfate (sigma Cat. no P9625). Absorbance readings were taken in spectrophotometer at 465 nm. The data was analysed using graph pad prism software. Positive control (100% survival)=Cells in complete media with 0.3% DMSO; Negative control/blank (0% survival)=Media alone containing 0.3% DMSO.
as §1

| IC50 ([1]; Homo sapiens, NCI-H1792, 72 h) [µM] | Compound | viability at 30 µM ([1]; Homo sapiens, NCI-H1792, 72 h) [%] | further results |
| --- | --- | --- | --- |
| > 25 | CC(C#Cc1ccc(Cl)c(Cl)c1)NC(=O)N1CCN(C(=O)/C=C/C(N)=O)CC1 (racemic) [Example 65, (E)-4-(4-amino-4-oxobut-2-enoyl)-N-(4-(3,4-dichlorophenyl)but-3-yn-2-yl) piperazine-1-carboxamide] | 73 |  |
|  | CC(C#Cc1ccc(Cl)c(Cl)c1)NC(=O)N1CCC(n2ccnc2)CC1 (stereo not shown) [Example 62] |  | IC50 ([2]; Homo sapiens, NCI-H2122, 192 h): 10 to 25 µM; viability at 30 µM ([2]; Homo sapiens, NCI-H2122, 192 h): 33% |
|  | C=CC(=O)N1CCN(C(=O)NC(C)C#Cc2ccc(OCc3ccccc3)c(Cl)c2)CC1 (stereo not shown) [Example 18] |  | IC50 ([2]; Homo sapiens, NCI-H2122, 192 h): < 10 µM; viability at 30 µM ([2]; Homo sapiens, NCI-H2122, 192 h): 1% |
| > 25 | C=CC(=O)NC1CCN(C(=O)NC(C)C#Cc2ccc(Cl)c(Cl)c2)CC1 (stereo not shown) [Example 12] | 83 |  |
| 10 to 25 | C=CS(=O)(=O)NC1CC2CC1CN2C(=O)NC(C)C#Cc1ccc(Cl)c(Cl)c1 (stereo not shown) [Example 56] | 39 |  |
|  | C=CC(=O)N1CC(N2CCN(C(=O)NC3(C#Cc4ccc(Cl)c(C5(C)CC5)c4)CC3)CC2)C1 [Example 27] |  | IC50 ([2]; Homo sapiens, NCI-H2122, 192 h): < 10 µM |
| > 25 | CC(C)=CC(=O)N1CCN(C(=O)NC(C)C#Cc2ccc(Cl)c(Cl)c2)CC1 (stereo not shown) [Example 15] | 90 |  |
| < 10 | C=CC(=O)N1CCN(C(=O)NC(C#Cc2ccc(Cl)c(Cl)c2)CC)CC1 (racemic) [Example 2, 4-acryloyl-N-(1-(3,4-dichlorophenyl)pent-1-yn-3-yl)piperazine-1-carboxamide] | 22 |  |
|  | C=CC(=O)NC1(C(=O)NC(C)C#Cc2ccc(Cl)c(Cl)c2)CCCC1 (stereo not shown) [Example 74] |  | IC50 ([2]; Homo sapiens, NCI-H2122, 192 h): > 25 µM; viability at 30 µM ([2]; Homo sapiens, NCI-H2122, 192 h): 60% |
|  | CC(C#Cc1ccc(Cl)c(Cl)c1)NC(=O)N1CCN(C(=O)/C(C#N)=C/N(C)C)CC1 (stereo not shown) [Example 60] |  | IC50 ([2]; Homo sapiens, NCI-H2122, 192 h): > 25 µM; viability at 30 µM ([2]; Homo sapiens, NCI-H2122, 192 h): 90% |
|  | CC(C#Cc1ccc(Cl)c(Cl)c1)NC(=O)N1CCN(CC2CO2)CC1 (stereo not shown) [Example 21] |  | IC50 ([2]; Homo sapiens, NCI-H2122, 192 h): 10 to 25 µM; viability at 30 µM ([2]; Homo sapiens, NCI-H2122, 192 h): 31% |
|  | C=CC(=O)N(C)[C@@H]1CCCC[C@H]1N(C)C(=O)NC(C)C#Cc1ccc(Cl)c(Cl)c1 (single isomer, unassigned) [Example 48a] |  | IC50 [2]: > 25 µM |
| > 25 | C=CC(=O)NC1CC2CC1CN2C(=O)NC(C)C#Cc1ccc(Cl)c(Cl)c1 (stereo not shown) [Example 55] | 100 |  |
|  | C=CC(=O)N1CCN(C(=O)NC2(C#Cc3ccc(Cl)c(C4(C)CC4)c3)CC2)CC1 [Example 26] |  | IC50 ([2]; Homo sapiens, NCI-H2122, 192 h): 10 to 25 µM |
| 10 to 25 | C=CS(=O)(=O)NC1CCN(C(=O)NC(C)C#Cc2ccc(Cl)c(Cl)c2)CC1 (racemic) [Example 49, N-(4-(3,4-dichlorophenyl)but-3-yn-2-yl)-4-(vinylsulfonamido) piperidine-1-carboxamide] | 35 |  |
|  | CC(C#Cc1ccc(Cl)c(Cl)c1)NC(=O)N1CCN(C(=O)C2(C#N)CC2)CC1 (racemic) [Example 44, 4-(1-cyanocyclopropane-1-carbonyl)-N-(4-(3,4-dichlorophenyl)but-3-yn-2-yl) piperazine-1-carboxamide] |  | IC50 ([2]; Homo sapiens, NCI-H2122, 192 h): > 25 µM; viability at 30 µM ([2]; Homo sapiens, NCI-H2122, 192 h): 99% |
| > 25 | C=CC(=O)N1CCN(C(=O)NC(C)C#Cc2ccc3[nH]ncc3c2)CC1 (stereo not shown) [Example 10] | 89 |  |
| < 10 | C=CC(=O)N1CC(N2CCN(C(=O)NC(C)C#Cc3ccc(Cl)c(Cl)c3)CC2)C1 (stereo not shown) [Example 8] | 35 |  |
| > 25 | C/C=C/C(=O)N1CCN(C(=O)NC(C)C#Cc2ccc(Cl)c(Cl)c2)CC1 (stereo not shown) [Example 14] |  |  |

| IC50 ([1]; Homo sapiens, NCI-H1792, 72 h) [µM] | Compound | viability at 30 µM ([1]; Homo sapiens, NCI-H1792, 72 h) [%] | further results |
| --- | --- | --- | --- |
|  | C=CC(=O)N1CCN(C(=O)NC(C)C#Cc2ccc(Cl)c(Cl)c2)CC1 (single isomer, unassigned) [Example 1b, 4-acryloyl-N-(4-(3,4-dichlorophenyl)but-3-yn-2-yl) piperazine-1-carboxamide] |  | IC50 [1]: 10 to 25 µM; % Viability (at 30 μM) [1]: 37% |
| < 10 | C=CC(=O)N1CCN(C(=O)NC(C)C#Cc2ccc(Cl)c(Cl)c2)CC1 (racemic) [Example 1, 4-acryloyl-N-(4-(3,4-dichlorophenyl)but-3-yn-2-yl) piperazine-1-carboxamide] | 40 |  |
| < 10 | C=CS(=O)(=O)N[C@H]1CC[C@H](C(=O)NC(C)C#Cc2ccc(Cl)c(Cl)c2)CC1 (mixture of isomers) [Example 75, (1r,4r)-N-(4-(3,4-dichlorophenyl)but-3-yn-2-yl)-4-(vinylsulfonamido) cyclohexane-1-carboxamide] | 10 |  |
| > 25 | C=CC(=O)N[C@H]1CC[C@H](C(=O)NC(C)C#Cc2ccc(Cl)c(Cl)c2)CC1 (stereo partly shown) [Example 73] | 64 |  |
| < 10 | CC(C#Cc1ccc(Cl)c(Cl)c1)NC(=O)N1CCN(C(=O)CCl)CC1 (stereo not shown) [Example 19] |  |  |
| < 10 | C=CC(=O)Nc1ccc(C(=O)NC(C)C#Cc2ccc(Cl)c(Cl)c2)cc1 (racemic) [Example 76, 4-acrylamido-N-(4-(3,4-dichlorophenyl)but-3-yn-2-yl)benzamide] | 26 |  |
| 10 to 25 | C=CC(=O)N1CCN(C(=O)NC(C)C#Cc2ccc(C)c(Cl)c2)CC1 (stereo not shown) [Example 7] | 33 |  |
| < 10 | CC(C#Cc1ccc(Cl)c(Cl)c1)NC(=O)N1CCN(C(=O)/C=C/CN(C)C)CC1 (racemic) [Example 47, (E)-N-(4-(3,4-dichlorophenyl)but-3-yn-2-yl)-4-(4-(dimethylamino)but-2-enoyl) piperazine-1-carboxamide] | 26 |  |
| 10 to 25 | CC(C#Cc1ccc(Cl)c(Cl)c1)NC(=O)N1CCN(C(=O)C(C)Cl)CC1 (stereo not shown) [Example 16] | 3 |  |
| > 25 | CC(C#Cc1ccc(Cl)c(Cl)c1)NC(=O)N1CCN(C(=O)/C=C/c2ccccc2)CC1 (stereo not shown) [Example 13] |  |  |
| 10 to 25 | C=CC(=O)N1CCN(C(=O)NC(C)C#Cc2ccc(C(F)(F)F)c(Cl)c2)CC1 (stereo not shown) [Example 6] | 19 |  |
| 10 to 25 | C=CC(=O)N1CCN(C(=S)NC(C)C#Cc2ccc(Cl)c(Cl)c2)CC1 (racemic) [Example 69, 4-Acryloyl-N-(4-(3,4-dichlorophenyl)but-3-yn-2-yl) piperazine-1-carbothioamide] | 18 |  |
| > 25 | C=CC(=O)N1CCN(C(=O)NC(C)C#Cc2cccc3c2cnn3C)CC1 (stereo not shown) [Example 11] | 91 |  |
| > 25 | C=CC(=O)N1CCN(C(=O)NC(C)C#Cc2ccc3ccccc3c2)CC1 (stereo not shown) [Example 9] | 47 |  |
|  | C=CC(=O)N1CCN(C(=O)NC(C#Cc2ccc(Cl)c(Cl)c2)CC)CC1 (single isomer, unassigned) [Example 2a] |  | IC50 [1]: > 25 µM; % Viability (at 30 μM) [1]: 56% |
| < 10 | CCOC(=O)/C=C/C(=O)N1CCN(C(=O)NC(C)C#Cc2ccc(Cl)c(Cl)c2)CC1 (stereo not shown) [Example 57] | 17 |  |
| 10 to 25 | C=CC(=O)N1CCN(C(=O)NC(C#Cc2ccc(Cl)c(Cl)c2)C(C)C)CC1 (stereo not shown) [Example 4] | 15 |  |
| < 10 | C=CC(=O)N1CCC(C(=O)NC(C)C#Cc2ccc(Cl)c(Cl)c2)CC1 (stereo not shown) [Example 70] | 33 |  |
|  | C=CC(=O)N1CCN(C(=O)NC(C#Cc2ccc(Cl)c(Cl)c2)CC)CC1 (single isomer, unassigned) [Example 2b] | 57 | IC50 [1]: 10 to 25 µM |
